Patent publication US8741965B2, “Method of administering a pheromone composition to an animal to modify the animals behavior over an extended period of time” (Sergeant's Pet Care Products, Inc., priority 2011, dated 2014)
Entries after “also recorded” stand apart in the source; their conditions may differ. Marks after values point to notes of the source that are not given here.

Columns and labels:
Format in all cases: in vivo, dog
nervous dogs = test: Example 11 Study 2: behavior and heart rate after collar or spray with startle
From the text: (§1) Eight dogs were obtained from a local contract research facility and assessment was made as to general dog health, behavior and heart rate. The dogs were estimated to be 2 to 7 years of age, mixed breed, and weighed averagely 8.1±0.18 kg at the start of the studies. […] Upon arrival each dog was bathed using shampoo containing flea and tick medicine (Hartz Mountain Corp. Secaucus, N.J. USA), and their body hair was shaved. Each dog was kept in a single room, which had 100% fresh air intake and exhaust. The dogs were fed twice (am and pm) per day ad libitum. At that time, the room was cleaned and the dogs obtained extra exercise. Water was available ad libitum.
(§2) Dog behavior was captured on video media at a sampling rate of 30 frames per second. Video records were reviewed in real time (with tape playing 30 frames per second). A scan sampling method was used to record dog behaviors each minute or each 5 minutes depending on the particular study. If the sample period was 120 minutes with four periods (0-30=0, 30-60=30, 60-90=60, and 90-120-90 min), then a scan sample was recorded each 1 minute. If the sample period was 24 hours, then the scan sample was collected each 5 minutes and summarized each hour. For example, pacing is when a dog walks in a stereotyped manner for minutes to hours. Because it was not easy to distinguish walking from pacing, the behaviors were merged. In addition, the video records could not clearly distinguish lying down and awake versus lying down and sleeping, therefore there was no separate description for these two behaviors.
(§3) Heart rate during the studies was measured by the use of a non-invasive telemetry system (Data Science International, St. Paul, Minn., USA). Leads were placed in contact with the dogs' shaved skin. Sensors measured heart rate, surface temperature and general activity. Data were transmitted to a receiving computer in another room. The sampling rate varied with the study, but was 5 seconds for the first two hours after treatments and then each 1 minute for 24 hours (depending on the particular study). For surface temperature measurements of the dog subjects, a thermistor was located against the skin of each dog. It recorded the surface temperature to the neared 0.1° C. on the same interval as the heart rate data.
(§4) Behavior and physiological data (heart rate and surface temperature) were analyzed by least squares analysis of variance using SAS (2011) software and the general linear models procedures. The experimental design of each study was a specialized randomized complete block in a Latin square design with data collected as a split plot over time. Dogs represented the blocks. Each dog received each treatment randomly in successive days or weeks. The statistical model included effects of treatment (TRT), dog, dog by treatment (TRT*DOG; error term used to assess treatment and dog effects), time (HR), treatment by time (TRT*HR), and residual error (SE; used to test remaining effects). Behavior data were collected and analyzed as counts per time period, but for clarity of presentation, the data are reported as percentage of time dogs engaged in each behavior.
In Study 2, the dogs were exposed to the same treatments as in Study 1, except a startle was also applied. An aerosol can (Pet Corrector, The Company of Animals, Surrey, UK) was used to make a loud hissing noise and a spray of liquid as a startle. The protocol involved spraying the Rabbit Pheromone at 0, 30, 60, and 90 min (RP; 1 μg/mL) or collar application (PLACEBO, SERG, or DAPC) at time zero. Each dog was startled at 45 minutes. Data were recorded for 120 minutes. Data reporting periods were: 0 (0-30 min), 30 (30-60 min), and 90 (90-120 min).

dogs = test: Spray to face of dogs, heart rate for two hours (Example 10)
Method: A spray composition comprising rabbit pheromone as an INTEROMONE® was prepared in accordance with Example 9. Four dogs were fitted with cloth jackets that contained electrodes to measure their heart rate. One dog was sprayed with the 2-methylbut-2-enal composition, one dog was sprayed with a placebo, and two dogs were sprayed with pheromone-based products currently on the market for purposes of modifying behavior. […] Data were collected for two hours following application of the spray to the facial/snout region of the four dogs. The control period was indicated as time zero (“0”) on FIG. 1 and FIG. 2.

nervous dogs (dogs 5-8) = test: Example 11 Study 4: room diffusers over 24 hours; conditions: for heart rate and surface temperature of individual dogs: compared with Placebo, FIGS. 17A and 17B
From the text: as §1, §2, §3, §4
In Study 4, putative pheromones were examined as room diffusers. Room diffusers were obtained and different liquid odors were applied over a 24 hour period. In contrast to Studies 1, 2, and 3, heart rates and behavior data were obtained over 24 hours (rather than just 2 hours after treatment application as in the other studies) and a baseline day was included in the dataset. Similar to Studies 1, 2, and 3, each dog experienced each treatment on different days in random order. The following treatment groups were evaluated: Baseline, Placebo Formula H Pheromone (SERG), DAP room diffuser (DAPRD; as available commercially) and the Rabbit Pheromone in diffuser form prepared in accordance with Example 4 (RPRD, 1 μg/mL). […]

adult anxious dogs = test: Collars, heart rate and behavior in adult anxious dogs, Latin square, foghorn startle (Example 6)
Method: The objective of this study was to assess efficacy of pheromones/INTEROMONE® compositions to modulate heart rate and behavior in adult anxious dogs (trembling, cowering, shy). The dogs (8.1±0.18 kg; estimated 5-12 yr intact males) were obtained from a local research facility. Body weights and feed intake were recorded. Each dog was housed in a separately ventilated room with a minimum of 12 m^2 of floor space. Heart rate (HR) and surface temperature was measured using a telemetry system (Data Science International, St. Paul, Minn.). Behavior was recorded on a DVR and later reviewed by a trained individual. A scan sample was used with a recording interval of 5 min over 24 hours.
The dogs were treated with four different treatments on different days: Placebo collar (no Pheromone/INTEROMONE®), Pheromone only collar (Serg), Rabbit pheromone as INTEROMONE® collar (RP) (prepared in accordance with Example 1), and INTEROMONE® plus Pheromone collar (Serg+RP) (prepared in accordance with Example 3). At the end of 24 hours with a given collar, each dog was startled with a 110 db foghorn placed 12 cm from the dog's head while behavior and heart rate were recorded. Each dog received each treatment in a Latin square design with repeated measures over time. This model allowed evaluation of effects of treatment, dog, treatment by dog, time, treatment by time and dog by time.

[1] = 120 minutes after startle, SERG, DAPC collars, RP spray 1 μg/mL

For `C/C=C(\C)C=O` [RP, 2-methylbut-2-enal], the Defecate (nervous dogs; [1]) was 0.0 % of time, the Drink (nervous dogs; [1]) was 3.7 % of time and the Eat (nervous dogs; [1]) was 1.2 % of time. The Lick self (nervous dogs; [1]) was 0.0^b % of time, the Lying down (nervous dogs; [1]) was 46.4 % of time and the Pace-walk (nervous dogs; [1]) was 19.4 % of time. For the same molecule, the Sitting (nervous dogs; [1]) was 53.8 % of time, the Standing (nervous dogs; [1]) was 23.4^b % of time and the Urinate (nervous dogs; [1]) was 0.0 % of time. For the same molecule, the “lying down and sitting behavior of individual dogs after startle” value (nervous dogs; FIGS. 8 and 9) was “dogs 2, 3, 6 and 8 spent less time lying down but more time sitting after startle”, the “standing behavior after startle” value (nervous dogs; in comparison to Placebo or SERG collars) was “increased standing behavior among RP-sprayed dogs” and the “reduction of average dog heart rate” value (dogs; FIG. 1) was 24.5 beats/min per hour. The “heart rate reduction over the two hour period” value (dogs; compared to marketed products and placebo) was 30%, the “TEMP (surface temperature)” value (nervous dogs (dogs 5-8); after room diffuser treatment, dogs 5-8, Placebo 30.9) was 33.8 and the “HR (overall heart rate)” value (nervous dogs (dogs 5-8); after room diffuser treatment, dogs 5-8, Placebo 79.6) was 108.4. The Defecate (nervous dogs (dogs 5-8); room diffuser, 24 hours) was 0.18% of time, the Drink (nervous dogs (dogs 5-8); room diffuser, 24 hours) was 0.18% of time and the Eat (nervous dogs (dogs 5-8); room diffuser, 24 hours) was 0.26% of time. For the same molecule, the Lick self (nervous dogs (dogs 5-8); room diffuser, 24 hours) was 0.09% of time, the “Lying down” value (nervous dogs (dogs 5-8); room diffuser, 24 hours) was 87.0% of time and the Pace- (nervous dogs (dogs 5-8); room diffuser, 24 hours) was 5.67% of time. The Sitting (nervous dogs (dogs 5-8); room diffuser, 24 hours) was 5.00% of time, the Standing (nervous dogs (dogs 5-8); room diffuser, 24 hours) was 1.42% of time and the Urinate (nervous dogs (dogs 5-8); room diffuser, 24 hours) was 0.26% of time. The “drinking behavior of individual dogs” value (nervous dogs (dogs 5-8); room diffuser, FIG. 16) was “dog 7 showed increased drinking”, the “heart rate and surface temperature of individual dogs” value (nervous dogs (dogs 5-8); room diffuser) was “increased the surface temperature of dog 7 compared to placebo” and the “heart rate and surface temperature of individual dogs” value (nervous dogs (dogs 5-8); room diffuser, listed as rabbit pheromone) was “Dog 5 had elevated HR and surface temperature; also recorded: Dog 6 had increased heart rate and decreased surface temperature”. The “heart rate of dog 5” value (nervous dogs (dogs 5-8); room diffuser, increased to) was “about 200 bpm”, the HR after startle (adult anxious dogs; collar 24 h, 110 db foghorn, placebo 157.8±7.2, P<0.01) was 124.5±7.2 bpm and the time pacing (adult anxious dogs; collar, placebo 3.8±0.02, P<0.05) was 3.0±0.2%. The time lying down (adult anxious dogs; collar, placebo 63.2±4.8, P=0.01) was 87.4±5.4 % of time and the “effect on dog HR (summary)” value (adult anxious dogs; collars) was “lowered HR”.
